In patent US20220106547A1, “COMPOSITIONS AND METHODS OF USING PARTIAL GEL LAYERS IN A MICROFLUIDIC DEVICE” (Emulate, Inc., priority 2019, published 2022):

What was measured:
human neutrophils = assay: Neutrophil recruitment/adhesion in HRV infected Airway Chips; assay type: cell-based
From the text: In one embodiment, the present invention contemplates a method for reducing neutrophil adhesion using an IL-13 inhibitor. In one embodiment, the IL-13 inhibitor is a CXCR2 antagonist. In one embodiment, the IL-13 inhibitor is MK-7123. In one embodiment, the neutrophil adhesion is reduced by approximately seventy-five (75) percent (%). In one embodiment, the IL-13 recruits neutrophils by approximately two-fold.
This response was accompanied by a reduction in neutrophil velocity. FIG. 95A, 95B. Also observed was a significant twofold increase in neutrophil recruited between HRV infected chips and infected chips in presence of IL-13 (953 vs 1999; p<0.001). FIG. 95A. […] FIG. 95C.

[1] = system: primary human hepatocytes; assay: Lipid droplet accumulation (AdipoRed) in ALD Liver-Chip; conditions: ethanol 0.08% or 0.16%, oleic acid 1 μg/ml, up to 48 hrs
[2] = system: primary human hepatocytes; assay: Oxidative stress (MitoSox ROS events) in Liver-Chip hepatocytes; assay type: cell-based; conditions: 48 h exposure
From the text: Having shown that at least one embodiment of a Liver-Chip responds to alcohol, we explored the possibility of modeling the progression of ALD, as per the two- or one-hit and second-hit hypothesis, such that simple steatosis induced by alcohol requires a second hit (insult) for progression of ALD to ASH ref^69. Ethanol consumption in humans compromises the intestinal barrier function resulting in increased permeability to intestinal endotoxins, e.g. bacterial lipopolysaccharide (LPS), from the gut to the liver via the portal vein ref^18. Such a permeabalized leaky barrier is considered one of the “second hits” in the progression of ALD to inflammation (ASH) ref^70. Therefore, we tested whether exposure to ethanol and LPS together would worsen the Liver-Chip pathology.
Clinical data have shown the potential of the steatotic liver to repair the steatotic injury following timely abstinence from alcohol or with diet modifications ref^19. Thus, we assessed the responses of the “alcoholic” Liver-Chip to withdrawal from ethanol or ethanol+LPS. Treatment of the Liver-Chip for 48 h with ethanol or ethanol+LPS as above, was followed by a 5 day-long treatment-free “recovery” period. […]
Live cell staining. […] The stained chips were imaged using either an Olympus fluorescence microscope (IX83) or Zeiss confocal microscope (LSM880), and were de-blurred with Olympus cellSens software. […]

[3] = system: bile canaliculi network of primary human hepatocytes; assay: Bile canaliculi (BC) network integrity, MRP-2 staining, Liver-Chip; assay type: cell-based; conditions: 0.08% ethanol with or without LPS, 48 h
From the text: A Tri-culture configuration includes primary hepatocytes cultured in the upper channel and primary liver sinusoidal endothelial cells (LSECs) cultured on the opposite side of the membrane, i.e. in the lower channel, along with Kupffer cells. As this design recapitulates elements of the hepatic sinusoid microenvironment ref^17, we were interested in recreating the bile canaliculi (BC) network that is established between neighboring hepatocytes. […] The latter together with the lack of a reproducible, quantitative manner to assess the integrity of the BC network have precluded the use of this clinical endpoint in preclinical studies. […] Based on these findings, we assessed the impact of various ECM scaffold compositions and patterning methods on BC integrity by using quantitative metrics to describe the MRP-2 stained BC network topology (FIG. 82A-E: Table 8. […]
To assess the effect of each ECM protocol on BC network formation, we quantified the MRP-2 stained BC network topology (see method sections on IF staining and Image analysis for details). […]
For measuring bile canaliculi network properties, MRP-2 stained chips were imaged at 40× using a confocal point-scanning microscope (Zeiss LSM880, Airyscan). […] In each field of view, a z-stack was recorded and combined using maximal intensity projection in order to fully capture the bile canaliculi network. […]

[4] = system: primary human hepatocytes; conditions: 0.08% and 0.16% pooled vs vehicle
[5] = system: primary human hepatocytes; conditions: 48 hrs
From the text: To this purpose we used fluorometric assays for biochemical markers of liver function, including albumin, cholesterol, glucose, and glycogen (FIG. 77A-B).
Liver-Chip culture. Liver-Chip culture was established according to our previously published protocol^74. […] Extracellular matrix sandwiching and composition in the Liver-Chip was optimized to support BC integrity (FIG. 81A-B and method sections below). On the other side of the membrane (the lower chamber of the chip) human primary LSECs (3 million cells/mL) and KCs (0.5 million cells/mL) were seeded to mimic the hepatic sinusoid architecture (FIG. 76A). The two cell compartments were perfused independently, and flow rates were optimized to enable optimal survival and maturation of the different cell types ref^74. In the Quad Liver-Chip experiments, primary human hepatic stellate cells (50,000 cells/mL) were mixed within the collagen coating (FibriCol at 0.5 mg/ml concentration) and add to activated chips and let incubate overnight before hepatocytes seeding on the top of the collagen and HSC mix. The seeded hepatocytes were overlaid with ECM as described in FIG. 81A-B and below, and maintained in William's E Medium (WEM) containing Glutamax (Gibco), ITS+ (Corning), dexamethasone (Sigma-Aldrich), ascorbic acid (Sigma-Aldrich), fetal bovine serum (Sigma-Aldrich), and penicillin/streptomycin (Sigma-Aldrich), and incubated at 37° C., 5% CO2. The vascular channel of the Liver-Chip was maintained with human endothelial media (Emulate, Inc.). Two days after seeding, the Liver-Chips were connected to the Human Emulation System™ (Emulate, Inc.) and both chip channels were perfused at 30 μL/h to provide a continuous supply of fresh medium for the duration of the experiments. At day 5 in culture, the basal medium was modified to DMEM low glucose (1 g/L) supplemented with non-essential amino acids solution (NEAA, 1:200 dilution), glutaMAX (Thermo Fisher) ascorbic acid (Sigma-Aldrich) and penicillin/streptomycin (Sigma-Aldrich). Moreover, ITS+ premix (Corning) was replaced by ITS (GIBCO, 1:500 dilution) in order to achieve a more physiological relevant concentration of insulin, while the FBS supplement was removed. Treatment. […] The Liver-Chip was maintained for 48h in treatment medium and either assayed or allowed to recover for 5 days in basal medium. Optimization of Liver-Chip ECM for BC integrity. We iteratively modified the original ECM coating protocol^74 in order to improve BC formation. Five different combinations of ECM composition and deposition strategy were tested (FIG. 82B), where ECM-A denoted the original protocol. Briefly, for ECM-A, top and bottom channels were coated by incubating with 100 μg/mL rat tail collagen-I (Corning) and 25 μ/mL fibronectin (Gibco) overnight at 37° C. […]

lung cells = assay: Viability/differentiation biomarker scoring of airway chip culture conditions; assay type: cell-based; conditions: airway S1 chip culture
From the text: In one embodiment, the present invention contemplates a method comprising scoring at least one cell biomarker and determining a viable and differentiated cell. For example, specific quantitative scores have been assigned to a set of cell biomarkers for viability and differentiation during chip cell culture maturation includes, but is not limited to, cell death (1), ciliation (2) cell attachment (3) cell movement/shape (4), cell overgrowth (5), cell invasion (6). See, FIG. 14.
As depicted, the score value increases as the viability/differentiation relevance of the cell biomarker decreases. In one embodiment, the cell death biomarker score value increases in proportion to increased cell death. In one embodiment, the ciliation biomarker score value increases in proportion to deceased ciliation. In one embodiment, the cell attachment biomarker score value increases in proportion to decreased cell attachment. In one embodiment, the cell movement/shape biomarker score value increases with decreased cell movement/shape. In one embodiment, the cell overgrowth biomarker score value increases with increased cell overgrowth. […]
Each coating can be seen to result in different score values that are independent of location in the cell culture device (e.g., Zoe). […] It is known that retinoic acid (RA) is readily absorbed by most microchip substrates. […]

[6] = system: mucociliary bronchiolar epithelium (hAECs); assay: Effect of IL-13 on goblet cells and cilia beating frequency in Airway Chip; assay type: cell-based, human; conditions: IL-13 100 ng/mL, 7 days
Experimental: Cilia beating frequency (CBF) was measured by applying Fourier spectral analysis to high-speed video recordings of the ciliated surfaces. Using an inverted phase contrast microscope, the ciliated surfaces were recorded at 190-200 frames per second and at a resolution of 512 by 512 pixels, which corresponded to a field of view of 166 by 166 μm^2 (0.32 μm per pixel). Cilia beating was recorded at multiple randomly chosen fields of view (FOV) for each chip.
A first step of video processing was to identify regions of ciliary beating by computing a normalized standard deviation of an intensity value for each pixel across all frames. […] FIG. 104A-B.
In a further step, areas with ciliary motion were thresholded and the movie field of view was divided into 289 windows (ca. 10×10 μm^2 in size). For each window, a random set comprising 70% of all pixels with detected motion was further analyzed to detect the dominant beat frequency. For each sampled pixel, ciliary beat frequency was determined from a time-dependent fluctuation of pixel brightness reflecting the periodicities of the ciliary movement. A bandwidth filter (e.g., approximately 1 to 30 Hz) was applied to each pixel signal to remove noise. […] Thus, for each FOV, the number of measured CBFs was determined by the number of windows with usable signals (e.g., 289 windows). […]

CC[C@@H](Nc1c(Nc2cccc(C(=O)N(C)C)c2O)c(=O)c1=O)c1ccc(C)o1 [MK-7123, reference compound]
reduction of neutrophil adhesion (human neutrophils; stated as embodiment, MK-7123 10 μM in FIG. 95): ~75%

CCO [ethanol]
steatosis (hepatic lipid accumulation) [1]: steatosis was induced
ROS events per nuclei [2]: dose-dependent increase in ROS events
dilated BC (cholestatic) areas [3]: areas of markedly dilated BCs
downregulated DE genes [4]: 36
upregulated DE genes [4]: 87
differentially expressed (DE) genes ([4]; adj. p<0.05, |log2FC|>1): 123
glycogen storage in cell lysates ([5]; 0.08% ethanol): trend for increase
albumin release [5]: not affected
cholesterol levels ([5]; human-relevant BACs, effluent and cell lysates): significant increase in cholesterol levels
glucose release ([5]; except toxic concentrations above 0.32%): no changes were detected

CCCCCCCC/C=C\CCCCCCCC(=O)O [oleic acid, reference compound]
steatosis (hepatic lipid accumulation) [1]: steatosis was induced

Bovine Serum Albumin (BSA): membrane coating layer of bovine serum albumin
cell viability and differentiation (scoring / morphological assessment) (lung cells): found to support the most viable and differentiated cells

IL-13: Th2 cytokine IL-13
neutrophil recruited (human neutrophils; HRV infected chips in presence of IL-13, 953 in HRV infected chips alone): 1999
reduction in cilia beating frequency [6]: 14.4%
goblet cells, total area ([6]; 16.5% without IL-13): 50.3%
